Assay: phosphorescence of singlet oxygen (near IR emission spectrum)
Details: in CD2Cl2 at room temperature, λexc=670 nm
Description: The spectrum was recorded from a suspension of the photosensitizing nanomaterial in CD2Cl2 at room temperature, λexc=670 nm.
The singlet oxygen ^1O2 is produced by reaction of triplet oxygen (^3O2) with the monomeric form of the silicon (IV) phthalocyanine chloride complex, which is present on the surface of the zeolite L crystals, according to an example of the present disclosure. The generation of the singlet oxygen ^1O2 was investigated by measuring the near IR emission spectrum of the photosensitizing nanomaterials 40 in a suspension with deuteriated dichloromethane as the solvent (CD2Cl2). […] No characteristic phosphorescence can be detected.
Fluorescence emission and excitation spectra of the photosensitizing nanomaterial 40 suspended in CH2Cl2 were recorded by using a HORIBA Jobin-Yvon IBH FL-322 Fluorolog 3 spectrometer. The phosphorescence spectrum of ^1O2 in CD2Cl2 was recorded by using a HORIBA Jobin-Yvon IBH FL-322 Fluorolog 3 spectrometer equipped with an air-cooled Hamamatsu H9170-75 (InP/InGaAs) PMT detector.

With `Cl[Si]1(Cl)n2c3c4ccccc4c2N=C2N=C(N=c4c5ccccc5c(n41)=NC1=NC(=N3)c3ccccc31)c1ccccc12` [silicon (IV) phthalocyanine chloride, Si(IV) phthalocyanine dichloride] the “generation of singlet oxygen (1O2), characteristic phosphorescence” value was “does not show any generation of the singlet oxygen”.

Reference: patent US8193343B2, “Manufacture and products thereof of photosensitizing nanomaterials and their use in photodynamic treatment” (Westfalische Wilhelms-Universitat Munster, priority 2009, dated 2012)
